Test results taken from patent publication US12692265B2, “Solid state forms of Ensifentrine and process for preparation thereof” (ASSIA CHEMICAL INDUSTRIES LTD., priority 2021, dated 2026).

Legend:
Format in all cases: physicochemical
[1] = Thermal stability (heating, XRPD); details: heating up to 100° C. for 30 minutes
Procedure: (§1) X-ray diffraction was performed on X-Ray powder diffractometer: • Bruker D8 Advance; CuKα radiation (λ=1.5418 Å); Lynx eye detector; laboratory temperature 22-25° C.; PMMA specimen holder ring with silicon low background. Prior to analysis, the samples were gently ground by means of mortar and pestle in order to obtain a fine powder. The ground sample was adjusted into a cavity of the sample holder and the surface of the sample was smoothed by means of a cover glass. Measurement Parameters: • Scan range: 2-40 degrees 2-theta; • Scan mode: continuous; • Step size: 0.05 degrees; • Time per step: 0.5 s; • Sample spin: 30 rpm; • Sample holder: PMMA specimen holder ring with silicon low background.
XRPD analysis of the sample confirmed no change in the starting material (Table 4): […]

[2] = Storage stability at different relative humidities and temperatures, 6 months (XRPD)
Procedure: as §1
Samples of Ensifentrine ethane-1,2-disulfonate form ES2 were subjected to conditions of different relative humidities at different temperatures. XRPD analysis was performed on the samples after 6 months.

[3] = Grinding experiments (strong grinding, solvent drop grinding; XRPD); details: for XRPD analysis results: 2 minutes
Procedure: as §1
Samples of Ensifentrine ethane-1,2-disulfonate form ES2 were subjected to strong grinding, and to solvent drop grinding in water and ethanol. Grinding was carried out on the samples alone, or in the presence of ethanol or water. In these experiments, about 20 mg of the sample is placed in a mortar and ground with a pestle for 2 minutes. The solvent, when used, as added to the crystalline material before grinding, in a volume of 10 microlitres. XRPD analysis performed on each of the samples after the grinding experiment, confirmed no change in the starting material (Table 3): […]

Ensifentrine ethane-1,2-disulfonate
XRPD analysis after heating [1]: no change
XRPD analysis results ([2]; 25° C., 60% RH): No change
XRPD analysis results ([2]; 40° C., 75% RH): No change
XRPD analysis results ([3]; Solvent-drop grinding (ethanol), 10 microlitres): No change
XRPD analysis results ([3]; Solvent-drop grinding (water), 10 microlitres): No change
XRPD analysis results ([3]; Strong grinding, about 20 mg, mortar and pestle): No change
XRPD analysis after the grinding experiment ([3]; each of the samples: alone, with ethanol, with water): no change
